Laboratory results published in patent US10780096B2, “Pyrrolobenzodiazepine-antibody conjugates” (priority 2014, dated 2020).
Where two headings read alike, the source gives them in different places.

Assays:
human CD25 = biological target: T1, human CD25 (Homo sapiens, UniProt P01589); experiment: Flow cytometry binding of ADCT-301-FITC on concanavalin-A activated CD25-positive human PBMCs; conditions: CD25-PE gate
T1 construct: endogenous in cells
T1 sequence (P01589 22-272): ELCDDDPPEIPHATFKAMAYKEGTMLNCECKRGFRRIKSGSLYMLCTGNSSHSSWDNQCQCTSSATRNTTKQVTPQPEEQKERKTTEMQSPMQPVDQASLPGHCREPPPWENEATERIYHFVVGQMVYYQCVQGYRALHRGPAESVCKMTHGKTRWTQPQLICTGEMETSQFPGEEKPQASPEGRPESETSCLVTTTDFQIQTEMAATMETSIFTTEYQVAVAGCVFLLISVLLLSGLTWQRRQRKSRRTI
Method: FIG. 1. Affinity of ADCT-301 for human CD25 as determined by flow cytometry on concanavalin-A activated CD25-positive human PBMCs. ADCT-301-FITC binding was assessed in a CD25-PE (phycoerythrin) gate across the dilution series by measuring median fluorescent intensity (MFI) in channel FL1H. Isotype, non-targeting-ADC-FITC was used as the non-binding ADC control.
Relative binding affinity of ADCT-301 was measured by flow cytometry on Concanavalin A-activated CD25-positive lymphocytes. Surface plasmon resonance (SPR, Biacore) was used to measure binding affinity and binding kinetics of HuMax®-TAC and ADCT-301 on recombinant sCD25 ectodomain attached to a gold surface.

Daudi = experiment: MTS cell proliferation assay, in vitro cytotoxicity; assay type: cell-based; conditions: Burkitt's lymphoma, CD25 negative, 96 hours
Method: (§1) FIG. 2. In vitro cytotoxicity of ADCT-301 on six lymphoma cell lines as measured by the MTS cell proliferation assay. Cells were incubated with increasing concentrations of ADCT-301 for 96 hours. Data is presented as the mean±SD
(§2) Cell surface protein copy number of CD25 and CD30 was determined on various lymphoma cell lines by flow cytometric Qifikit® assay. Cytotoxicity of ADCT-301 on these cell lines was determined by cell proliferation assay (MTS) to determine whether there is a correlation between CD25 copy number and in vitro cytotoxic potency.

HDLM-2 = experiment: as above; assay type: cell-based; conditions: HDLM-2, Hodgkin's lymphoma, CD25 expressing, 96 hours
Method: as §1, §2

HuT 78 = experiment: as above; assay type: cell-based; conditions: HuT 78, cutaneous T cell lymphoma, CD25 negative, 96 hours
Method: as §1, §2

Karpas 299 = experiment: as above; assay type: cell-based; conditions: Karpas 299, anaplastic large cell lymphoma, CD25 expressing, 96 hours
Method: as §1, §2

L540 = experiment: as above; assay type: cell-based; conditions: L540, Hodgkin's lymphoma, CD25 expressing, 96 hours
Method: as §1, §2

SU-DHL-1 = experiment: as above; assay type: cell-based; conditions: SU-DHL-1, anaplastic large cell lymphoma, CD25 expressing, 96 hours
Method: as §1, §2

[1] = system: CD25-negative Ramos cells; experiment: Bystander effect in co-culture of Karpas 299 and Ramos cells, flow cytometry; assay type: cell-based, human; conditions: 96 hour exposure, co-culture with CD25-positive Karpas 299, compared to Ramos cultured alone
Method: FIG. 3. […] The histogram depicts the percentage of viable populations of cells as measured by flow cytometry.
Readout was Karpas 299 and Ramos cell numbers and the viability of these cells both of which were determined by flow cytometry.
Ramos cells are human B lymphocytes of Burkitt's lymphoma.

[2] = system: CD25-negative Ramos cells; conditions: second culture 96 hrs
Method: FIG. 5. […] Data is presented as the mean±SD.
In these experiments, an first 48 hr culture of either (A) CD25-negative cells Ramos cells, or (B) CD25-positive Karpas 299, with ADCT-301 was performed. When this first culture was complete, the culture was centrifuged and 50 μl of the supernatant media transferred to 50 μl of a freshly prepared culture of either (A) CD25-negative cells Ramos cells, or (B) CD25-positive Karpas 299. This second culture was performed for 96 hrs, then cytotoxicity assessed by the MTS assay.

[3] = system: CD25-positive SuDHL-1 cells; experiment: Cytotoxicity on CD25-positive SuDHL-1 cells, cleavable vs non-cleavable linker; assay type: cell-based; conditions: direct treatment of CD25-positive SuDHL-1 cells
[4] = system: CD25-negative Burkitt lymphoma Ramos cells; experiment: Conditioned media transfer from SuDHL-1 culture to Ramos cells, MTS assay; assay type: cell-based, human; conditions: media conditioned by 48 hr culture of CD25-positive SuDHL-1 cells; second culture 96 hrs
Method: FIG. 6. Comparison of CD25−ve bystander cytotoxicity observed with cleavable vs. non-cleavable linkers by in vitro conditioned media transfer. […] The error bars indicate % cell viability±SD of 3 independent repeats
The effect of linker cleavablility was investigated in conditioned media transfer experiments. In these experiments, a first 48 hr culture CD25-positive SuDHL-1 cells was performed with either (1) of ADCT-301 (cleavable linker), or (2)NC-1 (composed of the recombinant human IgG1, HuMax®-TAC against human CD25 attached to a pyrrolobenzodiazepine PBD warhead with non-cleavable linker according to the alternative aspect of the disclosure).

## ADCT-301: recombinant human IgG1, HuMax-TAC against human CD25 attached to a pyrrolobenzodiazepine PBD warhead, cleavable linker; drug-antibody ratio 2.3±0.3; HuMax-TAC-E of WO2014/57119
Human CD25
  EC50 (affinity for human CD25, median fluorescent intensity): ≈ 0.03 μg/ml
Daudi
  GI50: > 10 nM
  Mean GI50: >>150 ng/ml
HDLM-2
  GI50: 0.0511 nM
  Mean GI50: 7.67 ng/mL
HuT 78
  GI50: > 10 nM
  Mean GI50: >>150 ng/ml
Karpas 299
  GI50: 0.0365 nM
  Mean GI50: 5.47 ng/mL
L540
  GI50: 0.0216 nM
  Mean GI50: 3.25 ng/mL
SU-DHL-1
  GI50: 0.0165 nM
  Mean GI50: 2.48 ng/mL
[1]
  Bystander killing of Ramos cells in co-culture: specific bystander killing of Ramos cells
[2]; media conditioned by 48 hr culture of CD25+ve Karpas299 cells
  Cytotoxicity to Ramos cells of conditioned media: potent cytotoxicity
[2]; media conditioned by 48 hr culture of CD25-ve Ramos cells
  Cytotoxicity to Ramos cells of conditioned media: does not lead to any observable increase in cytoxicity
[3]
  Sensitivity of SuDHL-1 cells to treatment: equally sensitive
[4]
  Cytotoxicity to Ramos cells of conditioned media: shows cytotoxicity of CD25-negative Burkitt lymphoma Ramos cells
